Like-named read-outs stand apart in the source and are kept apart here.

As a reminder, the Kd is the free concentration of one partner at which half of the binding sites on the other are occupied at equilibrium, for simple one-to-one binding.

Assay [1] has as its target T1, full-length Gal3 (Gal3 FL) (Homo sapiens, UniProt P17931).
T1 construct: Recombinant human galectin-3 (Gal3, 26 kDa, full-length galectin-3 or Gal3 FL); made in house
Description: Microscale thermophoresis (MST), Gal3 FL. Format: binding. The source says:
Microscale thermophoresis (MST) is a very sensitive, immobilization-free interaction technique that is based on the speed of migration away from a central point in the capillary that is hit by an infra-red laser at time 0 (Figure 1).
Microscale thermophoresis (MST) is a technique to quantify biomolecular interactions by measuring the directed movement of molecules in a microscopic temperature gradient induced by an infrared laser. The directed movement of molecules in thin capillaries was detected and quantified by means of a red-light fluorophore (NT-647-NHS, with excitation maximum at 647 nm and emission maximum at 670 nm) covalently linked to Gal3 proteins. For labelling, we used two times the concentration of the protein (16 μM Gal3 FL, 43 μM Gal3 CRD) for the fluorophore. Removal of excess fluorphore was combined with buffer exchange into 20 mM Hepes, pH 7.4 with 150 mM NaCl and 0.05% Tween-20.
A two-fold dilution series of ligand concentrations was established ranging from 239 μM to […], with a constant concentration of 4 μM Gal3 FL and 22 μM Gal3 CRD. The samples were loaded into standard glass capillaries and readings were performed with the red light of a Monolith NT.115, with LED power setting of 20% and an MST power setting of 40%. […] The same procedure was repeated for Gal3 CRD and using roscovitine as a ligand. The data were analyzed using the MO Affinity Analysis software v2.2.4.
For orientation: MST reads how a fluorescent partner responds to local heating, with and without ligand.

The target of assay [2] is T2, Gal3 FL (Homo sapiens, UniProt P17931).
T2 construct: Recombinant human galectin-3 (Gal3, 26 kDa, full-length galectin-3 or Gal3 FL); made in house
Nature of the assay: MST capillary scan, fit to initial fluorescence, Gal3 FL. As to conditions: capillary scan values, time point 0, read-out: KD from fit of initial (before thermophoresis) fluorescence. Format: binding. The source says: (§1) The large and unwanted initial fluorescence changes (Figure 1D) are unlikely to originate from Trp181 near the lactose-binding site of Gal3 CRD, because the MST was run using red fluorescence excitation and emission wavelengths. Also, although Gal3 FL has three tryptophans (Trp22, Trp26 and Trp181) instead of a single one (Trp181) in Gal3 CRD, it appears less affected (Figure 1A versus D). Therefore, there is more likely an involvement of NT-647-NHS-labelled lysine residues near the binding site of Au^3+TTPS. This involvement of labelled lysines enabled the fit based on the initial fluorescence data (Figure 2). […] Therefore, we initiated tryptophan fluorescence spectroscopy measurements (TFS).
(§2) Microscale thermophoresis (MST) is a technique to quantify biomolecular interactions by measuring the directed movement of molecules in a microscopic temperature gradient induced by an infrared laser. The directed movement of molecules in thin capillaries was detected and quantified by means of a red-light fluorophore (NT-647-NHS, with excitation maximum at 647 nm and emission maximum at 670 nm) covalently linked to Gal3 proteins. […]
(§3) A two-fold dilution series of ligand concentrations was established ranging from 239 μM to […], with a constant concentration of 4 μM Gal3 FL and 22 μM Gal3 CRD. […] The data were analyzed using the MO Affinity Analysis software v2.2.4.

Assay [3] has as its target T3, Gal3 CRD (Homo sapiens, UniProt P17931).
T3 construct: The carbohydrate recognition domain (Pro106-Ile250) of human Gal3 (Gal3 CRD); His-tag; made in house; host or cells: Escherichia coli BL21(DE3)
Description: MST capillary scan, fit to initial fluorescence, Gal3 CRD. In kind it is binding.
Source text: as §1, §2, §3

For assay [4], the target named is T2, Gal3 FL. Description: Tryptophan fluorescence spectroscopy (TFS), Gal3 FL. Format: binding. As to conditions: 2 μM Gal3 FL; 25 °C; pH 7.4; read-out: KD (TFS, non-linear regression). An excerpt:
(§4) The formation of Gal3–Au^3+TTPS complexes can be followed by the changes in the intrinsic or tryptophan fluorescence spectroscopy. Binding of the metal-based drug to Gal3 FL caused a red shift of the maximum emission wavelength of about 9 nm (339 nm to 348 nm), as well as a decrease in fluorescence intensity. This is indicative of indole side chains of Trp residues being exposed on the protein surface. […] The hyperbolic nature of the binding curves of gold porphyrin to of Gal3 FL and Gal3 CRD is indicative of the presence of a single binding site for the ligand.
(§5) Figure 3 TFS measurements of complex formation with Gal3. […] The data points were plotted as means ± standard error of the mean for three independent experimental data sets.
(§6) Tryptophan fluorescence spectroscopy (TFS) was performed on a Shimadzu spectrofluorometer (Shimadzu, Kyoto, Japan). […] Total fluorescence was calculated after normalization of the fluorescence spectra and corrected for dilution. In order to account for the inner filter and the self-absorption effects, the experiments were always carried out on samples with absorbance (OD280nm) less than 0.05. Absorbance was measured using a spectrophotometer (Beckman, Brea, CA, USA). All measurements were performed at 25 °C, with the temperature of the samples determined in the cuvette with an accuracy of ± 0.2 °C.

Assay [5] concerns the target T3, Gal3 CRD. Nature of the assay: Tryptophan fluorescence spectroscopy (TFS), Gal3 CRD. In kind it is binding. As to conditions: 10 μM Gal3 CRD; 25 °C; pH 7.4; read-out: KD (TFS, non-linear regression).
Source text: as §4, §5, §6

The target in assay [6] is T2, Gal3 FL. Description: Isothermal titration calorimetry (ITC), Gal3 FL. Format: binding. As to conditions: 22 °C. An excerpt: We used isothermal titration calorimetry (ITC), which is a molecular interaction technique ideal for the reliable determination of stoichiometric ratios in the protein soluble state. […] The reaction is exothermic and enthalpy driven with a heat release of −5363 ± 196.4 cal/mol, indicating a substantial number of non-covalent bonding during complex formation. Moreover, the interaction also profits from a significant entropic contribution of 1956 cal/mol.
A VP-ITC MicroCal instrument (Malvern Panalytical Ltd, Malvern, UK) with cell volume of 1.4253 mL was used at 22 °C for the measurement of the stoichiometric ratio and the enthalpy/entropy contributions to the binding of gold prophyrin to Gal3 FL. Prior to the experiment, the Gal3 FL protein was dialyzed extensively against 20 mM Hepes at pH 7.4 and 150 mM NaCl, the buffer used for the experiment.
For orientation: ITC needs no label: the signal is the heat of the interaction.

The target of assay [7] is T3, Gal3 CRD. Description: Isothermal titration calorimetry (ITC), Gal3 CRD. Format: binding. As to conditions: Gal3 CRD 32.67 μM, also at twice higher concentrations.
Another assay has as its target Gal3. As to conditions: cited from earlier work.
Assay [8] has as its target T3, Gal3 CRD. The arrangement: method as in PMID 31094416. As to conditions: ref 46; cited from earlier work.

T2 sequence (P17931 whole entry): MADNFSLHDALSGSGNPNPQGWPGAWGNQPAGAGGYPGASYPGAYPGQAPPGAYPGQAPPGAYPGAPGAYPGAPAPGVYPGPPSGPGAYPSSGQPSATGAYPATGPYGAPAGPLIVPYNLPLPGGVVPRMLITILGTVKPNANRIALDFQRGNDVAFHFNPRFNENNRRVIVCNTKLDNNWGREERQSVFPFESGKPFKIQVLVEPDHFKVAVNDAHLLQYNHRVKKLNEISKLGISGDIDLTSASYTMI
T1 sequence (P17931 whole entry): as above
T3 sequence (P17931 106-250): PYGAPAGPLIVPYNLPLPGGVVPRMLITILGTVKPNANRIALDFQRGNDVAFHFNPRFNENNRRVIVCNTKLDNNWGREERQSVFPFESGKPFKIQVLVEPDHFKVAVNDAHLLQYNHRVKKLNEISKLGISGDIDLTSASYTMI

For “5,10,15,20-Tetrakis(4-sulfonatophenyl)-porphyrin-Au(III)chloride [Au^3+TPPS]”, the “binding after SDS denaturation of Gal3 FL (SD test)” value in assay [1] (Gal3 FL denatured with 4% SDS, 40 mM DTT, 95 °C, same concentration series) is recorded as “without observing binding”. The Kd in assay [1] (Gal3 FL labelled with NT-647-NHS, 4 μM Gal3 FL, thermophoresis read-out, read-out: KD (MST curves)) was determined as 2.84 ± 1.03 µM; on Gal3 FL [2], 5.83 ± 0.65 µM; at Gal3 CRD [3] (Gal3 CRD, capillary scan values, time point 0, read-out: KD from fit of initial (before thermophoresis) fluorescence) it was 25.9 ± 0.65 µM; at Gal3 FL [4] it was 2.6 ± 0.6 µM; at Gal3 CRD [5], 22.7 ± 5.6 µM; on Gal3 FL [6] (20 mM Hepes pH 7.4, 150 mM NaCl, read-out: equilibrium dissociation constant KD (ITC)), 3.78 ± 0.27 µM. Also, the “weaker binding of truncated Gal3 (CRD) versus Gal3 FL” value on Gal3 CRD [3] (comparison of initial fluorescence fits) is given as “at Least 5 fold”. For the same compound, the “change in Gibbs free energy (ΔG) (ITC)” value at Gal3 FL [6] was -7.326 kcal/mol. For the same compound, the “entropic contribution (ITC)” value at Gal3 FL [6] came to 1.956 kcal/mol. Also, on Gal3 FL [6], the “heat release (enthalpy) (ITC)” value was -5.363 ± 0.1964 kcal/mol. The “stoichiometry (ITC)” value at Gal3 FL [6] was 1.02 ± 0.03 sites. The “ITC titration result with Gal3 CRD” value on Gal3 CRD [7] is recorded as “no measurable results”.

On to `CC(=O)N[C@H]1C(O)O[C@H](CO)[C@@H](O[C@@H]2O[C@H](CO)[C@H](O)[C@H](O)[C@H]2O)[C@@H]1O` (some centres unmarked) [N-acetyllactosamine], for which the dissociation constant (Kd) is 25 µM at Gal3 (ref 43), 28 µM on Gal3 (ref 44), 112 µM at Gal3 (ref 45) and 118 µM on Gal3 (ref 46).

In the case of `OC[C@H]1O[C@@H](O[C@H]2[C@H](O)[C@@H](O)C(O)O[C@@H]2CO)[C@H](O)[C@@H](O)[C@H]1O` (mixture of isomers) [lactose], in the assay with Gal3 (ref 42), the “inhibition of Zn^2+TTPS binding to Gal3” value is “did not inhibit”.

Turning to `CC[C@H](CO)Nc1nc(NCc2ccccc2)c2ncn(C(C)C)c2n1` [roscovitine, reference compound], the “affinity between Gal3 FL and ligand (MST)” value in [1] (Gal3 FL, MST) is on record as “no affinity”.

For the compound “CD146: cluster of differentiation 146, melanoma cell adhesion molecule, cell surface glycoprotein”, in the assay with Gal3 CRD [8], the “affinity for Gal3 CRD” value is listed as “unmeasurable”.

These data come from paper PMC6943629, “Binding of Gold(III) Porphyrin by the Pro-metastatic Regulatory Protein Human Galectin-3” (Molecules, 2019).
